Test [1] addresses Inhibitor of nuclear factor kappa-B kinase subunit epsilon (Homo sapiens, UniProt Q14164). The experiment in a line: Navigating the Kinome. Panel member name: IKBKE. Type of test: functional.
The target of test [2] is Mitogen-activated protein kinase 14 (Homo sapiens, UniProt Q16539). It is filed as functional.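 Also: part of a kinome-wide panel, MAPK14 entry.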
For test [3], the target named is Macrophage colony-stimulating factor 1 receptor (Homo sapiens, UniProt P07333). Type of test: functional.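 Also: value comes from the Navigating the Kinome screening panel, CSF1R member.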
Test [4] deals with Dual specificity tyrosine-phosphorylation-regulated kinase 1A (Homo sapiens, UniProt Q13627). It is filed as functional.
Test [5] addresses G protein-coupled receptor kinase 5 (Homo sapiens, UniProt P34947). The experiment in a line: Navigating the Kinome. Panel member name: GPRK5. It is filed as functional.
Test [6] concerns the target Hepatocyte growth factor receptor (Homo sapiens, UniProt P08581). Type of test: functional.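 Also: kinase panel profiling across the kinome, with MET as the panel member.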
The target in a further test is Activin receptor type-1 (Homo sapiens, UniProt Q04771). Nature of the test: Navigating the Kinome. Panel member name: ACVR1. Type of test: functional.
Test [7] deals with Tyrosine-protein kinase Fyn (Homo sapiens, UniProt P06241). Type of test: functional.
The target in test [8] is Mitogen-activated protein kinase kinase kinase kinase 4 (Homo sapiens, UniProt O95819). It is filed as functional.
Test [9] concerns the target Dual specificity mitogen-activated protein kinase kinase 2 (Homo sapiens, UniProt P36507). The experiment in a line: Navigating the Kinome. Panel member name: MAP2K2. Type of test: functional.
Test [10] has as its target cAMP-dependent protein kinase catalytic subunit alpha (Homo sapiens, UniProt P17612). It is filed as functional.
Test [11] addresses Tyrosine-protein kinase ABL1 (Homo sapiens, UniProt P00519). It is filed as functional.
In test [12] the target is Dual specificity protein kinase CLK4 (Homo sapiens, UniProt Q9HAZ1). Type of test: functional.
Test [13] has as its target Glycogen synthase kinase-3 beta (Homo sapiens, UniProt P49841). Type of test: functional.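 Also: value comes from a broad kinome profiling panel, with GSK3B as the panel member.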
In test [14] the target is Platelet-derived growth factor receptor alpha (Homo sapiens, UniProt P16234). The experiment in a line: Navigating the Kinome. Panel member name: PDGFRA. It is filed as functional.
Test [15] concerns the target Mitogen-activated protein kinase 8 (Homo sapiens, UniProt P45983). Type of test: functional.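 Also: value comes from one member of a kinome-wide kinase profiling panel.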
Test [16] concerns the target Leukocyte tyrosine kinase receptor (Homo sapiens, UniProt P29376). The experiment in a line: Navigating the Kinome. Panel member name: LTK. Type of test: functional.
For test [17], the target named is Protein kinase C theta type (Homo sapiens, UniProt Q04759). The experiment in a line: Navigating the Kinome. Panel member name: PRKCQ. Type of test: functional.
For test [18], the target named is Vascular endothelial growth factor receptor 1 (Homo sapiens, UniProt P17948). It is filed as functional.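 Also: measured within a kinome-wide profiling panel, FLT1 as the panel member.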
The target of test [19] is Fibroblast growth factor receptor 1 (Homo sapiens, UniProt P11362). It is filed as functional.
Another test addresses Aurora kinase B (Homo sapiens, UniProt Q96GD4). Type of test: functional.
The target of test [20] is Cyclin-dependent kinase 8 (Homo sapiens, UniProt P49336). Nature of the test: Navigating the Kinome. Panel member name: CDK8. It is filed as functional.
The target of test [21] is cAMP-dependent protein kinase catalytic subunit PRKX (Homo sapiens, UniProt P51817). It is filed as functional.
Another test deals with T1, Caspase-3 (Homo sapiens, UniProt P42574).
T1 sequence (P42574 whole entry): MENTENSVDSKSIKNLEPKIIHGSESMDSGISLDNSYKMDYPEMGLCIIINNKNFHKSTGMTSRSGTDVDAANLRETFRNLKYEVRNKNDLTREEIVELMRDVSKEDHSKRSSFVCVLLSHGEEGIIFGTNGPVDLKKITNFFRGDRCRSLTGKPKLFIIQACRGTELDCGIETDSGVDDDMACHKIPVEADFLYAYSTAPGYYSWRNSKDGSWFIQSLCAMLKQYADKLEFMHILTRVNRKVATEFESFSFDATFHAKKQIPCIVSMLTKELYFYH
The experiment in a line: SAR Analysis of small molecule inhibitors of Sentrin-specific proteases (SENPs) using a Caspase-3 Selectivity assay. [Related pubchem assays (depositor defined):AID2540, AID2599, AID434973, AID489001]. It is filed as functional.

Test [22] has as its target Matrix metalloproteinase-14 (Homo sapiens, UniProt P50281). Nature of the test: Dose Response confirmation of uHTS hits for a small molecule inhibitors of MT1-MMP activation in a fluorescence assay set 1. It is filed as functional.
The target in the next test is Melanocortin receptor 4 (Homo sapiens, UniProt P32245). Nature of the test: inhibitors of MC4R cAMP signaling – cell-based, TR-FRET, biased antagonists, dose response (AID 602298).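 Also: antagonist potency against agonist-stimulated cAMP production.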 Type of test: functional. On the technique in general: Time-resolved FRET reads energy transfer from a long-lived donor to a nearby acceptor.
Another test deals with T2, Streptokinase A (Streptococcus pyogenes serotype M1, UniProt P10520).
T2 sequence (P10520 whole entry): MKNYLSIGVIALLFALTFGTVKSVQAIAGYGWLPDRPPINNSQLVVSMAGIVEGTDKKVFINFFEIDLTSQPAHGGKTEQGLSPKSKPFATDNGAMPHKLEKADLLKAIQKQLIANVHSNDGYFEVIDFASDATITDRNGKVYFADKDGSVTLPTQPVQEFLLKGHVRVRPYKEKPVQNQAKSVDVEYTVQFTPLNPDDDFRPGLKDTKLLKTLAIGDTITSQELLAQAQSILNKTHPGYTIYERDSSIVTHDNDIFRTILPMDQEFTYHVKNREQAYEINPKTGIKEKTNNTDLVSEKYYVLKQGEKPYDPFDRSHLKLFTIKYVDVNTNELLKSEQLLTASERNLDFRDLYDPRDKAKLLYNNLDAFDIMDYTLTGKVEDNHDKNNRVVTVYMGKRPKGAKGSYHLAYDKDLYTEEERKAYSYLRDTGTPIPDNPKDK
Nature of the test: viability-normalized secreted streptokinase activity reduction – plasminogen activation absorbance, OD405, dose response (AID 1914).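 Also: secreted streptokinase activity via plasminogen activation per viability signal from cell pellet.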 Type of test: functional, Streptococcus pyogenes M1 GAS.

Test [23] has as its target C-C chemokine receptor type 6 (Homo sapiens, UniProt P51684). Nature of the test: antagonism of CCR6 beta-arrestin recruitment – cell-based, luminescent beta-arrestin readout, dose response (AID 504728). It is filed as functional.
Test [24] can be described thus: Luminescence Cell-Based Dose Response HTS to Identify Inhibitors of 5'UTR Stem-Loop Driven Prion Protein mRNA Translation in H4 Neuroglioblastoma Cells. [Related pubchem assays: 1827 (Project Summary), 1813 (Primary HTS)]. Type of test: functional.

Active and inactive are the calls of the source.

Sequence of Macrophage colony-stimulating factor 1 receptor (P07333 whole entry): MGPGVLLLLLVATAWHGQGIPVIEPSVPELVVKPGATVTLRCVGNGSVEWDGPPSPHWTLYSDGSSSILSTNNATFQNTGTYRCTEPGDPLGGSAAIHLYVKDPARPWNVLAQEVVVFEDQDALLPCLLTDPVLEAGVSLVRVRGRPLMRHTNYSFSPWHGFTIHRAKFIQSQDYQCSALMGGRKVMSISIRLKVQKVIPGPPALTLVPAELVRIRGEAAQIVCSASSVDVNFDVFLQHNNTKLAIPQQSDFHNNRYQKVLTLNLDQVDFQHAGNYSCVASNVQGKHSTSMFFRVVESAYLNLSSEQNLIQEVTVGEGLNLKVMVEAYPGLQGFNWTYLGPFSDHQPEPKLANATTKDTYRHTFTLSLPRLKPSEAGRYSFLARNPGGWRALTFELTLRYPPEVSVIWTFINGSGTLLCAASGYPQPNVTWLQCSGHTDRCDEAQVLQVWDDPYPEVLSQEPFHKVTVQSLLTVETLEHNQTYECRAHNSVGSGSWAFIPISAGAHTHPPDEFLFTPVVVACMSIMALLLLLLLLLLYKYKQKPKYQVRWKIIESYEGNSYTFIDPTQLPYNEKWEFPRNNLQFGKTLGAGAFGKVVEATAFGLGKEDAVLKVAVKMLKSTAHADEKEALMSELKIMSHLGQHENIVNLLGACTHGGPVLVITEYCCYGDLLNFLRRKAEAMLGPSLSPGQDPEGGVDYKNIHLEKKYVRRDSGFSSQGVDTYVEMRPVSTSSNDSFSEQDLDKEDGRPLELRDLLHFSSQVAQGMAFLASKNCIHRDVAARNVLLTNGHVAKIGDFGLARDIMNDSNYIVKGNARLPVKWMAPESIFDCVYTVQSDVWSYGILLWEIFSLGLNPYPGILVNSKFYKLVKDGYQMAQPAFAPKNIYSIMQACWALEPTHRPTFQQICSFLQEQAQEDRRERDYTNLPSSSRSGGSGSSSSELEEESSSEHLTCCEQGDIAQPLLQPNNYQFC
Sequence of cAMP-dependent protein kinase catalytic subunit PRKX (P51817 whole entry): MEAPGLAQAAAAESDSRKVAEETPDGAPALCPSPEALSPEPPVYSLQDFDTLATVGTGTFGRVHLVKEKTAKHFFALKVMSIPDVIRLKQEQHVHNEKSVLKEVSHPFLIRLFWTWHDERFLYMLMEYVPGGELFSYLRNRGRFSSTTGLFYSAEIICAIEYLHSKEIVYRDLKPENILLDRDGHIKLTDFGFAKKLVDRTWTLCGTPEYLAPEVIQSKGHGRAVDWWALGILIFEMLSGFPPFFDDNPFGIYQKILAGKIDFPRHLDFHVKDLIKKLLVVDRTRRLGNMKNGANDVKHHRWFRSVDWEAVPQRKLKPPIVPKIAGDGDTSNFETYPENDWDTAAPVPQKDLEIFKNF
Sequence of Inhibitor of nuclear factor kappa-B kinase subunit epsilon (Q14164 whole entry): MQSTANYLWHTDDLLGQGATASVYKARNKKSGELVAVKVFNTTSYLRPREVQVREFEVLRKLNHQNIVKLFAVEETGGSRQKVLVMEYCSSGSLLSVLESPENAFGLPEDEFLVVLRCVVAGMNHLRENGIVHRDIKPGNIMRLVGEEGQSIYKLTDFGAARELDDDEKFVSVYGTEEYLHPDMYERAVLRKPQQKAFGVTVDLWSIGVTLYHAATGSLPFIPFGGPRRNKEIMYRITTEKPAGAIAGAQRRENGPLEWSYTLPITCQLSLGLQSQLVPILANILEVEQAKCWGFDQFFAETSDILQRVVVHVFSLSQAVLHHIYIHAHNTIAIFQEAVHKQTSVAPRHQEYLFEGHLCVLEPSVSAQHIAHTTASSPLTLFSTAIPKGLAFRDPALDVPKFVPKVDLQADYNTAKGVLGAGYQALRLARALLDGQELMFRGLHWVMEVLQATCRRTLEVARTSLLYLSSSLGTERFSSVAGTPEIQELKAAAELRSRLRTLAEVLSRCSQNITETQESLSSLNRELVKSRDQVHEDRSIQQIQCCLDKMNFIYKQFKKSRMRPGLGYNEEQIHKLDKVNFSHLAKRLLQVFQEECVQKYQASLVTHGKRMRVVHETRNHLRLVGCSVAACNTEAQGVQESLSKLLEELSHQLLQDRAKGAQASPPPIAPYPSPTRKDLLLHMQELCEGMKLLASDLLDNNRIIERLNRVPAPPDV
Sequence of Dual specificity protein kinase CLK4 (Q9HAZ1 whole entry): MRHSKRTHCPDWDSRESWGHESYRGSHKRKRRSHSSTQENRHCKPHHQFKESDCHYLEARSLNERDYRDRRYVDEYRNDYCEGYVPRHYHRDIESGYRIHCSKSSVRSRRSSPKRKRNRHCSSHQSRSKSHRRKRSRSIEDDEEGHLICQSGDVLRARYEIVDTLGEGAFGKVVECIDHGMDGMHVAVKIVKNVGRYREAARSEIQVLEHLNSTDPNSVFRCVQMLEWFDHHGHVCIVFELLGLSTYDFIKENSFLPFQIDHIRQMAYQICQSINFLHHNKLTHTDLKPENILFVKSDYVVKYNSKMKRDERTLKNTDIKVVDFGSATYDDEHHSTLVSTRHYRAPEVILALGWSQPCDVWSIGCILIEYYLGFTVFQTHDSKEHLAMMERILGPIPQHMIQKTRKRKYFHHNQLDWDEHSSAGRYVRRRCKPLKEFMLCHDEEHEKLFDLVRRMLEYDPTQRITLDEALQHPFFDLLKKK
Sequence of Aurora kinase B (Q96GD4 whole entry): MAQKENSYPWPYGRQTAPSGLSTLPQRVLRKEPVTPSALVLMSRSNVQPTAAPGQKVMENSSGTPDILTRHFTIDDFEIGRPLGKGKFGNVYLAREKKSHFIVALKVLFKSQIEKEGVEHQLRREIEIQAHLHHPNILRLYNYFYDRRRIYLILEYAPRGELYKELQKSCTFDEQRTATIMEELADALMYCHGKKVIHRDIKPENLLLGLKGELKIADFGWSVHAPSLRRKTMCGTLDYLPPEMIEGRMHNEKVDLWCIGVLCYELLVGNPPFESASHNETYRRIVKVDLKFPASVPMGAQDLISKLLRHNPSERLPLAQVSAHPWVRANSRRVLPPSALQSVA
Sequence of Activin receptor type-1 (Q04771 whole entry): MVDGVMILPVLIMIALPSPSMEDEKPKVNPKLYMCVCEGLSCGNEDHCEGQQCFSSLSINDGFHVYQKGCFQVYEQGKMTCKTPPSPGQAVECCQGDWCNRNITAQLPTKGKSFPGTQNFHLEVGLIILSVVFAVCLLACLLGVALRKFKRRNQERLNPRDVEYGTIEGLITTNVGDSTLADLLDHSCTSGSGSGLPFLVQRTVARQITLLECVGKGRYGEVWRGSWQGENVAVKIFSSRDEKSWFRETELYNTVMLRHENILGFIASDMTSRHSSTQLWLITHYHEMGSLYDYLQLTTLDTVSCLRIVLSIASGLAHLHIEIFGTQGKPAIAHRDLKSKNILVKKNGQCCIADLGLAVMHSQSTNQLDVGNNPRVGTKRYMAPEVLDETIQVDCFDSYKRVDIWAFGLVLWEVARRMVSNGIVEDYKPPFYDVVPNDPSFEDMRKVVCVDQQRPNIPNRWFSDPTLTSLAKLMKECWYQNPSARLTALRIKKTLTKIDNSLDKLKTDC
Sequence of Protein kinase C theta type (Q04759 whole entry): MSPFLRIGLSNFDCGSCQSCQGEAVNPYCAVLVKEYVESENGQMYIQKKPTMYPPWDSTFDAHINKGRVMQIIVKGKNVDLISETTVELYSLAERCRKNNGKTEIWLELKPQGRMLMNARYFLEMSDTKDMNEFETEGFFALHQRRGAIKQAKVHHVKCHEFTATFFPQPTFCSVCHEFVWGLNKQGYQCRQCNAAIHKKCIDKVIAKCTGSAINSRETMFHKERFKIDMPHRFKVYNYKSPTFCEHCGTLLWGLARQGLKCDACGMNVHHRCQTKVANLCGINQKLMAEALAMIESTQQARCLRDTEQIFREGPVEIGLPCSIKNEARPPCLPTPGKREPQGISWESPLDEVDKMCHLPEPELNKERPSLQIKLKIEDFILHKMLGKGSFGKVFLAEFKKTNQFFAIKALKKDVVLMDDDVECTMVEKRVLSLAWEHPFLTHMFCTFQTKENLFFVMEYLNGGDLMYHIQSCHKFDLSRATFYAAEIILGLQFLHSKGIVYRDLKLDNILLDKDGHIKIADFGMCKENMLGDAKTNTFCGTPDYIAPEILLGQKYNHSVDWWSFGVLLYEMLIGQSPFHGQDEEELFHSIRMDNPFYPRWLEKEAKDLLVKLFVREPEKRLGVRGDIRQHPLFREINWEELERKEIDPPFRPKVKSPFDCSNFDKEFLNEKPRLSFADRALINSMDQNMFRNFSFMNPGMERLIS
Sequence of Glycogen synthase kinase-3 beta (P49841 whole entry): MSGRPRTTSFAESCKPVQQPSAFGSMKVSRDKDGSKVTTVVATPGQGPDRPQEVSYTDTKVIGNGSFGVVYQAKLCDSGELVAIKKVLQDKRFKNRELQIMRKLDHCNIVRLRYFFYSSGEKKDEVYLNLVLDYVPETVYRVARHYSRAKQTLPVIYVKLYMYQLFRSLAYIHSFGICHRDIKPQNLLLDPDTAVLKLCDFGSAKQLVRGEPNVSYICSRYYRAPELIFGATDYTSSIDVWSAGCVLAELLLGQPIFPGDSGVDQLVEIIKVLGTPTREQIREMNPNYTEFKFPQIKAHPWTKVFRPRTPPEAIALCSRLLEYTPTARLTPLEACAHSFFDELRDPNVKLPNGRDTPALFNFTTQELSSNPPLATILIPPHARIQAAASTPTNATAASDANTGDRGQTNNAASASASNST
Sequence of Mitogen-activated protein kinase 8 (P45983 whole entry): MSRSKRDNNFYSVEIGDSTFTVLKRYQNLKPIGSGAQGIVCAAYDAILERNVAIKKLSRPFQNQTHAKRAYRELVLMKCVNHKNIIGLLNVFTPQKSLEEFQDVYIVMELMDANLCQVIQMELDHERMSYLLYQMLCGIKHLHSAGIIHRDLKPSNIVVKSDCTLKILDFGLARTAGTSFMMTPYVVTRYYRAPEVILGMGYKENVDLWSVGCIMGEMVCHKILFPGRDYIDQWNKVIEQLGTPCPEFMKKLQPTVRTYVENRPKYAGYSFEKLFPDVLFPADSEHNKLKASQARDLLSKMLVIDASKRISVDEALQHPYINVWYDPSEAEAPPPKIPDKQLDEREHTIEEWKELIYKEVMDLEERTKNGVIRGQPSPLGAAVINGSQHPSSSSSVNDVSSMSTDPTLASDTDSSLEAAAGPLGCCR

As usually defined, the Ki is a dissociation constant, usually derived from enzyme kinetics or from competition with a known ligand. For `COc1cccc(C(C)NC(=O)c2ccc(-c3ccncc3)s2)c1` (centres undefined), the Ki in [1] was > 3.16 µM (inactive); in test [2] it was > 3.98 µM (inactive); in test [3] it was > 2.51 µM (inactive); in [4], > 2 µM (inactive); in test [5] it was 1 µM (active); in [6], > 2.51 µM (inactive). For the same compound, the Ki on Activin receptor type-1 was 2.51 µM (active); in test [7] it was > 6.31 µM (inactive); in [8], 5.01 µM (active); in test [9] it was > 3.98 µM (inactive); in [10] it was 79.4 nM (active); in test [11], > 2.51 µM (inactive). Moreover, the Ki in test [12] is 316 nM (active); in [13], 1.26 µM (active); in test [14], > 2.51 µM (inactive); in [15], > 5.01 µM (inactive); in test [16], > 2.51 µM (inactive); in [17], 316 nM (active). Moreover, the Ki in [18] is > 3.98 µM (inactive); in test [19] it was > 3.98 µM (inactive); on Aurora kinase B it was 398 nM (active); in test [20], 3.16 µM (active); in test [21], 2 µM (active).

Usually IC50 stands for the point on the concentration scale where inhibition reaches its midpoint. As to `Cc1ccc(NC(=O)COc2cccc(/C=C3\SC(=S)N(CCC(=O)O)C3=O)c2)cc1Cl`, the IC50 on Caspase-3 was > 99 µM (inactive).

The EC50 is the concentration needed to bring the measured effect to its halfway point. Regarding `O=Nc1c(-c2c(O)[nH]c3cc(Br)ccc23)[nH]c2ccccc12`, the half-inhibitory concentration (IC50) in test [22] was 1.78 µM (active); on Melanocortin receptor 4, 6.37 µM (active); in test [23], > 66.6 µM (inactive). Besides, the EC50 on Streptokinase A was 44.9 µM (active); in test [24], > 120 µM (not active).

The values above are taken from ChEMBL document CHEMBL1201862, “PubChem BioAssay data set” (2004).
